{"source": "paper PMC9979976", "about": "(Acta Crystallographica. Section F, Structural Biology …, 2023)", "key": {"[1]": {"biological_target": "T1, CATIII (chloramphenicol acetyltransferase III; CATIII+GG) (Escherichia coli, UniProt P00484)", "T1 construct": "gene cat3; synthetic gene, full length without Met1; expressed in E. coli BL21(DE3); trimer", "experiment": "X-ray crystal structure, […] A", "format": "binding"}, "[2]": {"biological_target": "the molecule itself", "experiment": "crystal structure; CATIII+GG at 24 mg/ml co-crystallised with 10 mM partially hydrolysed AcOCoA and saturating chloramphenicol; hanging drop, 46% PEG 400, 100 mM MgCl2, 0.1 M sodium citrate pH 5.5; space group P4(2)2(1)2, 1.68 A"}}, "data": [{"molecule": "CC(=O)OCCNC(=O)CCNC(=O)[C@H](O)C(C)(C)COP(=O)(O)OP(=O)(O)OC[C@H]1O[C@@H](n2cnc3c(N)ncnc32)[C@H](O)[C@@H]1OP(=O)(O)O", "note": "[AcOCoA, acetyl-oxa(dethia)CoA]", "values": [{"measurement": "X-ray crystal structure, 1.68 A", "setting": "[1]; co-crystallized with 10 mM AcOCoA (partly hydrolysed) and saturated chloramphenicol, pH 5.5, 298 K, active site, clearest in chain A, unreactive substrate analog", "result": "In monomer A we can clearly model the position of the acetyl group"}]}, {"molecule": "CC(C)(COP(=O)(O)OP(=O)(O)OC[C@H]1O[C@@H](n2cnc3c(N)ncnc32)[C@H](O)[C@@H]1OP(=O)(O)O)[C@@H](O)C(=O)NCCC(=O)NCCO", "note": "[OCoA, oxa(dethia)CoA]", "values": [{"measurement": "X-ray crystal structure, 1.68 A", "setting": "[1]; minor species (about 20% in monomer A) mixed with AcOCoA, with chloramphenicol, pH 5.5, active site", "result": "Our structures here reveal a mixture of bound AcOCoA and OCoA"}]}, {"molecule": "O=C(N[C@H](CO)[C@H](O)c1ccc([N+](=O)[O-])cc1)C(Cl)Cl", "note": "[chloramphenicol]", "values": [{"measurement": "X-ray crystal structure, 1.68 A", "setting": "[1]; co-crystallized at saturation with AcOCoA/OCoA, pH 5.5, 298 K, active site of each monomer", "result": "Our CATIII structure has clear electron density for chloramphenicol in each monomer"}]}, {"molecule": "Chloramphenicol acetyltransferase III (enzyme, cloning artifact left after TEV cleavage (Ser-Gly-Gly before Asn2); two Zn2+ modelled at contacts between trimers; also called CATIII; CATIII+GG; source: E. coli BL21(DE3), purified (HisTrap HP, TEV cleavage, second HisTrap HP); not shown: His6, N-terminal, cleaved) SGGNYTKFDVKNWVRREHFEFYRHRLPCGFSLTSKIDITTLKKSLDDSAYKFYPVMIYLIAQAVNQFDELRMAIKDDELIVWDSVDPQFTVFHQETETFSALSCPYSSDIDQFMVNYLSVMERYKSDTKLFPQGVTPENHLNISALPWVNFDSFNLNVANFTDYFAPIITMAKYQQEGDRLLLPLSVQVHHAVCDGFHVARFINRLQELCNSKLK", "values": [{"measurement": "stoichiometry N", "setting": "[2]", "result": 3}]}]}
